Assay: Inhibition of aggregation of human DHFR-fused amyloid beta (1 to 42) expressed in yeast harboring erg6delta assessed as increase in yeast viability measured up to 20 hrs in presence of MTX

| Compound | IC50 [nM] |
| --- | --- |
| Cc1nc2sc3c(c2c(=O)o1)CCCC3 | 1200 |
| O=C(Nc1ccccc1)Nc1ccc(Cl)cc1[N+](=O)[O-] | 900 |
| O=S(=O)(Nc1ccc(N2CCCCC2)cc1)c1cc(Cl)sc1Cl | 700 |
| Nc1c(S(=O)(=O)c2ccc(Cl)cc2)cnc2cc(-c3ccccc3)nn12 | 2300 |

From BindingDB's records for doi:10.1021/jm301186p (Universidad De Zaragoza, 2012)
